*1 amine or outer side, *2 acyl side, *3 side chain or, on linkers, in order; H or OH if unused. Where a SMILES comes first, the peptide text is derived from it. Bridges are numbered along the chain shown (N, C = ends). [ ]: non-standard residue; d: D form. Trp(5-Cl) = N[C@@H](Cc1c[nH]c2ccc(Cl)cc12)C(=O)O; Pyridine(2,6-diCH2) = c1cc(C[*:1])nc(C[*:2])c1; Phe(3-Cl) = N[C@@H](Cc1cccc(Cl)c1)C(=O)O; 1Nal = N[C@@H](Cc1cccc2ccccc12)C(=O)O; mXylylene = c1cc(C[*:1])cc(C[*:2])c1; oXylylene = c1ccc(C[*:2])c(C[*:1])c1; X6 = c1cc(CSCCN[*:2])nc(C[*:1])c1; Cya = N[C@@H](CS(=O)(=O)O)C(=O)O; Hyp = O=C(O)[C@@H]1C[C@@H](O)CN1; Suc = O=C(CCC(=O)[*:2])[*:1]; hLeu = CC(C)CC[C@H](N)C(=O)O; Thp = NC1(C(=O)O)CCOCC1; Aib = CC(C)(N)C(=O)O

The test addresses T1, GIPR (CHO-K1-hGIPR cells) (Homo sapiens, UniProt P48546).
T1 construct: host or cells: CHO-K1
T1 sequence (P48546 22-466): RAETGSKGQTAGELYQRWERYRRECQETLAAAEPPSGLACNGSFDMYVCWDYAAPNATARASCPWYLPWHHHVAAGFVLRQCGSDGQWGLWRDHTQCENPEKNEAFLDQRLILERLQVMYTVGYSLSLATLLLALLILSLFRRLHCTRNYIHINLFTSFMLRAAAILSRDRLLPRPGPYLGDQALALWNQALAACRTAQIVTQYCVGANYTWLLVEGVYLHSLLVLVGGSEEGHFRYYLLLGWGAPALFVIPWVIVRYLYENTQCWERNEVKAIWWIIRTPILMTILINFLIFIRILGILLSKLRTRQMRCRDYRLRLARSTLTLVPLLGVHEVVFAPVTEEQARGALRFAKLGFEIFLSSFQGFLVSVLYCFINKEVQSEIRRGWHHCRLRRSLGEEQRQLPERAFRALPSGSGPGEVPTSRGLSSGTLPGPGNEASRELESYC
Nature of the test: FACS binding assay. The following applies: competition with 20 nM GIP-057, 4° C. for 1 hour, read-out: pIC50 Category (converted). Put shortly: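 Steps: detach CHO-K1-hGIPR cells (Accutase); wash in PBS/1% FCS; adjust to 500.000 cells per mL; wash ice-cold; incubate APC-streptavidin 1 μg/mL, 30 min on ice; wash twice; acquire on flow cytometer; fit MFI-concentration data with a four-parameter logistic model.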
Take `CC[C@H](C)[C@@H]1NC(=O)[C@H](CC(C)C)NC(=O)[C@H](C)NC(=O)[C@@H](NC(=O)[C@H](CC(C)C)NC(=O)[C@H](CCC(=O)O)NC(=O)[C@@H]2CCCN2C(=O)[C@H](Cc2c[nH]c3ccccc23)NC(=O)[C@H](Cc2c[nH]c3ccccc23)NC(=O)[C@H](CC(=O)O)NC(=O)[C@H](Cc2ccc(O)cc2)NC(=O)[C@@H](N)CCSC)CSCc2cccc(c2)CSC[C@H](C(N)=O)NC1=O` [GIP-310] (H-MYDWWPELCALI[dC]-NH2; linker 9-13 via mXylylene): the IC50 was 100 to 794 nM.

In the case of `CC[C@H](C)[C@@H]1NC(=O)[C@H](CC(C)C)NC(=O)[C@H](C)NC(=O)[C@@H](NC(=O)[C@H](CC(C)C)NC(=O)[C@H](CCC(=O)O)NC(=O)[C@H](C)NC(=O)[C@H](Cc2c[nH]c3ccccc23)NC(=O)[C@H](Cc2c[nH]c3ccccc23)NC(=O)[C@H](CC(=O)O)NC(=O)[C@H](Cc2ccc(O)cc2)NC(=O)[C@@H](N)CCSC)CSCc2cccc(c2)CSC[C@@H](C(N)=O)NC1=O` [GIP-311] (H-MYDWWAELCALIC-NH2; linker 9-13 via mXylylene), the IC50 was 100 to 794 nM.

Regarding `CC[C@H](C)[C@@H]1NC(=O)[C@H](C)NC(=O)[C@H](C)NC(=O)[C@@H](NC(=O)[C@H](CC(C)C)NC(=O)[C@H](CCC(=O)O)NC(=O)[C@@H]2CCCN2C(=O)[C@H](Cc2c[nH]c3ccccc23)NC(=O)[C@H](Cc2c[nH]c3ccccc23)NC(=O)[C@H](CC(=O)O)NC(=O)[C@H](Cc2ccc(O)cc2)NC(=O)[C@@H](N)CCSC)CSCc2cccc(c2)CSC[C@@H](C(N)=O)NC1=O` [GIP-312] (H-MYDWWPELCAAIC-NH2; linker 9-13 via mXylylene), the IC50 was 100 to 794 nM.

As for `CC[C@H](C)[C@@H]1NC(=O)[C@@H](CC(C)C)NC(=O)[C@H](C)NC(=O)[C@@H](NC(=O)[C@H](CC(C)C)NC(=O)[C@H](CCC(=O)O)NC(=O)[C@@H]2CCCN2C(=O)[C@H](Cc2c[nH]c3ccccc23)NC(=O)[C@H](Cc2c[nH]c3ccccc23)NC(=O)[C@H](CC(=O)O)NC(=O)[C@H](Cc2ccc(O)cc2)NC(=O)[C@@H](N)CCSC)CSCc2ccccc2CSC[C@@H](C(N)=O)NC1=O` [GIP-313] (H-MYDWWPELCA[dL]IC-NH2; linker 9-13 via oXylylene), the IC50 is 100 to 794 nM.

With `CC[C@H](C)[C@@H]1NC(=O)[C@H](CC(C)C)NC(=O)[C@@H](C)NC(=O)[C@@H](NC(=O)[C@H](CC(C)C)NC(=O)[C@H](CCC(=O)O)NC(=O)[C@@H]2CCCN2C(=O)[C@H](Cc2c[nH]c3ccccc23)NC(=O)[C@H](Cc2c[nH]c3ccccc23)NC(=O)CCC(=O)O)CSCc2cccc(c2)CSC[C@@H](C(N)=O)NC1=O` [GIP-314, HO-Succinyl-Trp-Trp-Pro-Glu-Leu-[Cys(3MeBn)-ala-Leu-Ile-Cys]-NH2] (Suc-WWPELC[dA]LIC-NH2; linker 6-10 via mXylylene), the IC50 was 100 to 794 nM.

Consider `CC[C@H](C)[C@@H]1NC(=O)[C@H](CC(C)C)NC(=O)C(C)(C)NC(=O)[C@@H](NC(=O)[C@H](CCC(C)C)NC(=O)[C@H](CCC(=O)O)NC(=O)[C@@H]2CCCN2C(=O)[C@H](Cc2cccc3ccccc23)NC(=O)[C@H](Cc2c[nH]c3ccccc23)NC(=O)[C@H](CC(=O)O)NC(C)=O)CSCc2cccc(c2)CSC[C@@H](C(N)=O)NC1=O` [GIP-315, Ac-Asp-Trp-1Ni-Pro-Glu-Hle-[Cys(3MeBn)-Aib-Leu-Ile-Cys]-NH2] (Ac-DW[1Nal]PE[hLeu]C[Aib]LIC-NH2; linker 7-11 via mXylylene), for which the IC50 was 100 to 794 nM.

For the compound `CC[C@H](C)[C@@H]1NC(=O)[C@H](CC(C)C)NC(=O)C(C)(C)NC(=O)[C@@H](NC(=O)[C@@H](CC(C)C)NC(=O)[C@H](CCC(=O)O)NC(=O)[C@@H]2C[C@@H](O)CN2C(=O)[C@H](Cc2c[nH]c3ccc(Cl)cc23)NC(=O)CNC(=O)[C@H](CS(=O)(=O)O)NC(C)=O)CSCc2cccc(n2)CSCCNC1=O` [GIP-316, Ac-Cya-Gly-5Clw-Hyp-Glu-leu-[Cys(2Lut)-Aib-Leu-Ile-AET]] (Ac-[Cya]G[Trp(5-Cl)][Hyp]E[dL]C[Aib]LI; linker 7-C via X6), the IC50 was 100 to 794 nM.

Consider `CC[C@H](C)[C@@H]1NC(=O)[C@H](CC(C)C)NC(=O)[C@H](C)NC(=O)[C@@H](NC(=O)[C@H](CC(C)C)NC(=O)[C@H](CCC(=O)O)NC(=O)[C@@H]2CCCN2C(=O)[C@H](Cc2c[nH]c3ccccc23)NC(=O)[C@H](Cc2c[nH]c3ccccc23)NC(=O)[C@H](CS(=O)(=O)O)NC(C)=O)CSCc2cccc(c2)CSC[C@@H](C(N)=O)NC1=O` [GIP-317, Ac-Cya-Trp-Trp-Pro-Glu-Leu-[Cys(3MeBn)-Ala-Leu-Ile-Cys]-NH2] (Ac-[Cya]WWPELCALIC-NH2; linker 7-11 via mXylylene), for which the IC50 was 100 to 794 nM.

On to `CC[C@H](C)[C@@H]1NC(=O)[C@H](CC(C)C)NC(=O)[C@@H](C)NC(=O)[C@@H](NC(=O)[C@@H](CC(C)C)NC(=O)[C@H](CCC(=O)O)NC(=O)[C@@H]2CCCN2C(=O)[C@H](Cc2c[nH]c3ccccc23)NC(=O)[C@H](Cc2c[nH]c3ccccc23)NC(=O)CCC(=O)O)CSCc2cccc(c2)CSC[C@@H](C(N)=O)NC1=O` [GIP-318, HO-Succinyl-Trp-Trp-Pro-Glu-leu-[Cys(3MeBn)-ala-Leu-Ile-Cys]-NH2] (Suc-WWPE[dL]C[dA]LIC-NH2; linker 6-10 via mXylylene), for which the IC50 is 100 to 794 nM.

Consider `CC[C@H](C)[C@@H]1NC(=O)[C@H](CC(C)C)NC(=O)C(C)(C)NC(=O)[C@@H](NC(=O)[C@H](CC(C)C)NC(=O)[C@H](CCC(=O)O)NC(=O)[C@@H]2C[C@@H](O)CN2C(=O)[C@H](Cc2c[nH]c3ccccc23)NC(=O)[C@H](Cc2c[nH]c3ccccc23)NC(=O)CCC(=O)O)CSCc2cccc(c2)CSC[C@@H](C(N)=O)NC1=O` [GIP-319, HO-Succinyl-Trp-Trp-Hyp-Glu-Leu-[Cys(3MeBn)-Aib-Leu-Ile-Cys]-NH2] (Suc-WW[Hyp]ELC[Aib]LIC-NH2; linker 6-10 via mXylylene), for which the IC50 is 100 to 794 nM.

As for `CC[C@H](C)[C@@H]1NC(=O)[C@H](CC(C)C)NC(=O)C2(CCOCC2)NC(=O)[C@@H](NC(=O)[C@@H](CC(C)C)NC(=O)[C@H](CCC(=O)O)NC(=O)[C@@H]2C[C@@H](O)CN2C(=O)[C@H](Cc2cccc(Cl)c2)NC(=O)[C@H](Cc2c[nH]c3ccccc23)NC(=O)[C@H](CC(=O)O)NC(C)=O)CSCc2cccc(n2)CSC[C@@H](C(N)=O)NC1=O` [GIP-320, Ac-Asp-Trp-Mcf-Hyp-Glu-leu-[Cys(2Lut)-Thp-Leu-Ile-Cys]-NH2] (Ac-DW[Phe(3-Cl)][Hyp]E[dL]C[Thp]LIC-NH2; linker 7-11 via Pyridine(2,6-diCH2)), the IC50 is 100 to 794 nM.

`CC(=O)N[C@@H](CC(=O)O)C(=O)N[C@@H](Cc1c[nH]c2ccccc12)C(=O)N[C@@H](Cc1c[nH]c2ccc(Cl)cc12)C(=O)N1C[C@H](O)C[C@H]1C(=O)N[C@@H](CCC(=O)O)C(=O)N[C@H](CC(C)C)C(=O)N[C@H]1CSCc2cccc(n2)CSC[C@@H](C(N)=O)NC(=O)[C@H](CO)NC(=O)[C@H](CC(C)C)NC(=O)C2(CCOCC2)NC1=O` [GIP-322, Ac-Asp-Trp-5Clw-Hyp-Glu-leu-[Cys(2Lut)-Thp-Leu-Ser-Cys]-NH2] (Ac-DW[Trp(5-Cl)][Hyp]E[dL]C[Thp]LSC-NH2; linker 7-11 via Pyridine(2,6-diCH2)): the IC50 was 100 to 794 nM.

(Values after US20250296971A1, “GASTRIC INHIBITORY PEPTIDE RECEPTOR LIGANDS” (priority 2021, published 2025).)
